# From PubChem BioAssay AID2060486 (Molecular Pharmacology Branch, DTP, NCI, 2025)
# Tested on: IGROV1 complex spheroids (HUVEC, MSC), viability % test/control
# Test: Anticancer human tumor IGROV1 cell line growth inhibition [GQUAD];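 also: spheroids exposed to compounds for 7 days before readout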;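 as to viability, T/C: 100% = DMSO vehicle control viability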
# Conditions: for IC50: curve of first compound; for viability, T/C: stronger effect = lower value
# In short: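 Viability of tumor cells grown as complex spheroids with endothelial and stromal cells, exposed to drug combinations. Top concentration at or near clinical Cmax (else 10 microM), diluted in half-log increments.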
# [1] = second compound 0.0316 µM, first compound 0.0316 µM
# [2] = second compound 0.0316 µM, first compound 0.1 µM
# [3] = second compound 0.0316 µM, first compound 0.316 µM
# [4] = second compound 0.0316 µM, first compound 1 µM
# [5] = second compound 0.0316 µM, first compound 3.16 µM
# [6] = second compound 0.0316 µM, first compound 10 µM
# [7] = second compound 0.1 µM, first compound 0.0316 µM
# [8] = second compound 0.1 µM, first compound 0.1 µM
# [9] = second compound 0.1 µM, first compound 0.316 µM
# [10] = second compound 0.1 µM, first compound 1 µM
# [11] = second compound 0.1 µM, first compound 3.16 µM
# [12] = second compound 0.1 µM, first compound 10 µM
# [13] = second compound 0.316 µM, first compound 0.0316 µM
# [14] = second compound 0.316 µM, first compound 0.1 µM
# [15] = second compound 0.316 µM, first compound 0.316 µM
# [16] = second compound 0.316 µM, first compound 1 µM
# [17] = second compound 0.316 µM, first compound 3.16 µM
# [18] = second compound 0.316 µM, first compound 10 µM
# [19] = second compound 1 µM, first compound 0.0316 µM
# [20] = second compound 1 µM, first compound 0.1 µM
# [21] = second compound 1 µM, first compound 0.316 µM
# [22] = second compound 1 µM, first compound 1 µM
# [23] = second compound 1 µM, first compound 3.16 µM
# [24] = second compound 1 µM, first compound 10 µM
# [25] = second compound 3.16 µM, first compound 0.0316 µM
# [26] = second compound 3.16 µM, first compound 0.1 µM
# [27] = second compound 3.16 µM, first compound 0.316 µM
# [28] = second compound 3.16 µM, first compound 1 µM
# [29] = second compound 3.16 µM, first compound 3.16 µM
# [30] = second compound 3.16 µM, first compound 10 µM
# [31] = second compound 10 µM, first compound 0.0316 µM
# [32] = second compound 10 µM, first compound 0.1 µM
# [33] = second compound 10 µM, first compound 0.316 µM
# [34] = second compound 10 µM, first compound 1 µM
# [35] = second compound 10 µM, first compound 3.16 µM
# [36] = second compound 10 µM, first compound 10 µM
smiles,measurement,setting,value
C=CCn1c(=O)c2cnc(Nc3ccc(N4CCN(C)CC4)cc3)nc2n1-c1cccc(C(C)(C)O)n1 + Cc1[nH]c2ccc(F)cc2c1-c1nc2c3cccnc3c3ncccc3c2[nH]1,IC50,second compound 0.0316 µM,0.141 µM
same,IC50,second compound 0.1 µM,0.155 µM
same,IC50,second compound 0.316 µM,< 0.0316 µM
same,IC50,second compound 1 µM,< 0.0316 µM
same,IC50,second compound 3.16 µM,< 0.0316 µM
same,IC50,second compound 10 µM,< 0.0316 µM
same,"viability, T/C",[1],98.8%
same,"viability, T/C",[2],66.5%
same,"viability, T/C",[3],10.9%
same,"viability, T/C",[4],3.13%
same,"viability, T/C",[5],2.59%
same,"viability, T/C",[6],2.44%
same,"viability, T/C",[7],98.9%
same,"viability, T/C",[8],72.9%
same,"viability, T/C",[9],12.7%
same,"viability, T/C",[10],2.29%
same,"viability, T/C",[11],3.17%
same,"viability, T/C",[12],2.44%
same,"viability, T/C",[13],40.6%
same,"viability, T/C",[14],19.9%
same,"viability, T/C",[15],2.19%
same,"viability, T/C",[16],1.65%
same,"viability, T/C",[17],2.64%
same,"viability, T/C",[18],1.76%
same,"viability, T/C",[19],3.28%
same,"viability, T/C",[20],3.17%
same,"viability, T/C",[21],2.16%
same,"viability, T/C",[22],2.04%
same,"viability, T/C",[23],2.4%
same,"viability, T/C",[24],1.76%
same,"viability, T/C",[25],3.09%
same,"viability, T/C",[26],2.89%
same,"viability, T/C",[27],2.25%
same,"viability, T/C",[28],1.95%
same,"viability, T/C",[29],2.45%
same,"viability, T/C",[30],1.48%
same,"viability, T/C",[31],3.85%
same,"viability, T/C",[32],2.84%
same,"viability, T/C",[33],2.5%
same,"viability, T/C",[34],2.14%
same,"viability, T/C",[35],2.23%
same,"viability, T/C",[36],1.57%
CC(C)(O)C1CCC(Nc2ccc3ncc(-c4cccc(C(F)(F)F)c4)n3n2)CC1 (stereo unspecified) + Cc1[nH]c2ccc(F)cc2c1-c1nc2c3cccnc3c3ncccc3c2[nH]1,IC50,second compound 0.0316 µM,2.01 µM
same,IC50,second compound 0.1 µM,1.82 µM
same,IC50,second compound 0.316 µM,0.623 µM
same,IC50,second compound 1 µM,< 0.0316 µM
same,IC50,second compound 3.16 µM,< 0.0316 µM
same,IC50,second compound 10 µM,< 0.0316 µM
same,"viability, T/C",[1],93.8%
same,"viability, T/C",[2],83.1%
same,"viability, T/C",[3],94.3%
same,"viability, T/C",[4],82.7%
same,"viability, T/C",[5],27.4%
same,"viability, T/C",[6],30%
same,"viability, T/C",[7],99.3%
same,"viability, T/C",[8],83.3%
same,"viability, T/C",[9],102%
same,"viability, T/C",[10],68.5%
same,"viability, T/C",[11],32.9%
same,"viability, T/C",[12],33.4%
same,"viability, T/C",[13],69.6%
same,"viability, T/C",[14],70.6%
same,"viability, T/C",[15],65.3%
same,"viability, T/C",[16],38.8%
same,"viability, T/C",[17],6.69%
same,"viability, T/C",[18],5.42%
same,"viability, T/C",[19],3.27%
same,"viability, T/C",[20],3.08%
same,"viability, T/C",[21],4.14%
same,"viability, T/C",[22],3.08%
same,"viability, T/C",[23],3.37%
same,"viability, T/C",[24],2.43%
same,"viability, T/C",[25],2.86%
same,"viability, T/C",[26],3.13%
same,"viability, T/C",[27],3.35%
same,"viability, T/C",[28],3.26%
same,"viability, T/C",[29],2.39%
same,"viability, T/C",[30],2.06%
same,"viability, T/C",[31],3.41%
same,"viability, T/C",[32],3.18%
same,"viability, T/C",[33],3.27%
same,"viability, T/C",[34],2.99%
same,"viability, T/C",[35],2.37%
same,"viability, T/C",[36],2.38%
COc1ncnc(C2CC2)c1-c1ncc2cnn(Cc3ccc(-c4nc(C(F)(F)F)cn4C(C)C)cc3)c2n1 + Cc1[nH]c2ccc(F)cc2c1-c1nc2c3cccnc3c3ncccc3c2[nH]1,IC50,second compound 0.0316 µM,> 10 µM
same,IC50,second compound 0.1 µM,> 10 µM
same,IC50,second compound 0.316 µM,> 10 µM
same,IC50,second compound 1 µM,< 0.0316 µM
same,IC50,second compound 3.16 µM,< 0.0316 µM
same,IC50,second compound 10 µM,< 0.0316 µM
same,"viability, T/C",[1],95.7%
same,"viability, T/C",[2],79.5%
same,"viability, T/C",[3],89.6%
same,"viability, T/C",[4],89.9%
same,"viability, T/C",[5],90.3%
same,"viability, T/C",[6],93.2%
same,"viability, T/C",[7],100%
same,"viability, T/C",[8],74.6%
same,"viability, T/C",[9],79.7%
same,"viability, T/C",[10],80.7%
same,"viability, T/C",[11],100%
same,"viability, T/C",[12],71.2%
same,"viability, T/C",[13],63.7%
same,"viability, T/C",[14],51.8%
same,"viability, T/C",[15],72.1%
same,"viability, T/C",[16],62.4%
same,"viability, T/C",[17],72.8%
same,"viability, T/C",[18],46.1%
same,"viability, T/C",[19],3.69%
same,"viability, T/C",[20],3.51%
same,"viability, T/C",[21],4.12%
same,"viability, T/C",[22],3.46%
same,"viability, T/C",[23],4.03%
same,"viability, T/C",[24],3.74%
same,"viability, T/C",[25],2.91%
same,"viability, T/C",[26],3.63%
same,"viability, T/C",[27],3.35%
same,"viability, T/C",[28],3.99%
same,"viability, T/C",[29],3.54%
same,"viability, T/C",[30],2.75%
same,"viability, T/C",[31],3.12%
same,"viability, T/C",[32],4.19%
same,"viability, T/C",[33],4.15%
same,"viability, T/C",[34],3.3%
same,"viability, T/C",[35],3.45%
same,"viability, T/C",[36],2.6%
